Drawing on paper PMC6429262, “Design and Synthesis of Novel Anti-Proliferative Emodin Derivatives and Studies on their Cell Cycle Arrest, Apoptosis Pathway and Migration” (Molecules, 2019), this text covers IC50 for 22 molecules.

One assay has as its system HepG2 cells. The experiment in a line: CellTiter-Glo Luminescent Cell Viability Assay, HepG2. Type of assay: cell-based, human. The conditions noted are these: HepG2 cells, 48 h, mean of three independent experiments. Here is the method: (§1) The in vitro anti-proliferative activities of all the novel synthesized compounds were evaluated against HepG2 cells and MCF-7 cells by CellTiter-Glo® Luminescent Cell Viability Assay, using paclitaxel (a clinically used drug) as a positive control. Emodin (1) and compound 2 were also included for comparison.
(§2) HepG2 cells and MCF-7 cells were purchased from American Type Culture Collection (ATCC, Manassas, VA, USA). Cells were cultured in T75 flask (430641, Corning, New York, NY, USA), supplemented with high-glucose DMEM medium (Dulbecco’s modified Eagle’s medium, 11965-092, Gibco, New York, NY, USA) containing 10% Fetal bovine serum (FBS) and 1% penicillin (100 units/mL)-streptomycin (100 µg/mL) in a humidified incubator at 37 °C under 5% CO2 and 95% relative humidity (RH) atmosphere. The cells were harvested for metabolomics experiments using cell scrapers.
(§3) HepG2 cells and MCF-7 cells in 40 µL DMEM supplemented with 10% FBS were seeded at a density of 500 cells/well in 384-well cell culture plate (3570, Corning), respectively. After 24 h, the medium was substituted with fresh medium containing various sample solutions in DMSO (0.5%, v/v) at a dose range of 0.14–100 µM with 3-fold serial dilutions, and cells were cultured for another 48 h. Cells were cultured in medium without samples but 0.5% DMSO served as a control. All measurements were determined in triplicate for each treatment. After the sample treatment for 48 h, 20 µL CellTiter-Glo (G7573, Promega, Fitchburg, WI, USA) was added to each well containing cells and the contents were mixed for 2 min on an orbital shaker to induce cell lysis. The plates were then incubated at room temperature for 20 min to stabilize the luminescent signal. The luminescence was recorded on an Envision 2014 (Perkin Elmer, Waltham, MA, UAS). The IC50 values represented the samples’ concentrations required to inhibit 50% of cell proliferation and were calculated from a calibration curve by linear regression using GraphPad Prism 7.0 software (GraphPad Software, San Diego, CA, USA).

Another assay has as its system MCF-7 cells. Description: CellTiter-Glo Luminescent Cell Viability Assay, MCF-7. Type of assay: cell-based, human. The conditions noted are these: MCF-7 cells, 48 h, mean of three independent experiments. Here is the method:
as §1, §2, §3

For `Cc1cc(O)c2c(c1)C(=O)c1cc(OCCO)cc(O)c1C2=O` [Compound 2, 1,8-Dihydroxy-3-(2-hydroxyethoxy)-6-methylanthracene-9,10-dione], the IC50 with HepG2 cells (Homo sapiens, HepG2, 48 h) was 64.1 ± 2.37 µM; in the assay with MCF-7 cells (Homo sapiens, MCF7, 48 h), 86.4 ± 3.98 µM.

As to `Cc1cc(O)c2c(c1)C(=O)c1cc(OCCOC(=O)CN)cc(O)c1C2=O` [Compound 3a, 2-(2-(4,5-Dihydroxy-7-methyl-9,10-dioxo-9,10-dihydroanthracen-2-yloxy)ethoxy)-2-oxoethanaminium 2,2,2-trifluoroacetate], the IC50 in the assay on HepG2 cells (Homo sapiens, HepG2, 48 h) was determined as 22.7 ± 0.78 µM; with MCF-7 cells (Homo sapiens, MCF7, 48 h), 66.9 ± 1.65 µM.

`Cc1cc(O)c2c(c1)C(=O)c1cc(OCCOC(=O)[C@@H](N)CO)cc(O)c1C2=O` [Compound 3d, (S)-1-(2-(4,5-Dihydroxy-7-methyl-9,10-dioxo-9,10-dihydroanthracen-2-yloxy)ethoxy)-3-hydroxy-1-oxopropan-2-aminium 2,2,2-trifluoroacetate]: the IC50 with HepG2 cells (Homo sapiens, HepG2, 48 h) came to 12 ± 1.19 µM; in the assay on MCF-7 cells (Homo sapiens, MCF7, 48 h), 34 ± 1.98 µM.

Turning to `Cc1cc(O)c2c(c1)C(=O)c1cc(OCCOC(=O)[C@H](N)C(C)C)cc(O)c1C2=O` [Compound 3e, (R)-1-(2-(4,5-Dihydroxy-7-methyl-9,10-dioxo-9,10-dihydroanthracen-2-yloxy)ethoxy)-3-methyl-1-oxobutan-2-aminium 2,2,2-trifluoroacetate], the IC50 in the assay on HepG2 cells (Homo sapiens, HepG2, 48 h) was found to be 14.4 ± 1.09 µM; in the assay with MCF-7 cells (Homo sapiens, MCF7, 48 h), 14.2 ± 0.23 µM.

As for `Cc1cc(O)c2c(c1)C(=O)c1cc(OCCOC(=O)[C@@H](N)C(C)C)cc(O)c1C2=O` [Compound 3f, (S)-1-(2-(4,5-Dihydroxy-7-methyl-9,10-dioxo-9,10-dihydroanthracen-2-yloxy)ethoxy)-3-methyl-1-oxobutan-2-aminium 2,2,2-trifluoroacetate], the concentration for half-maximal inhibition (IC50) turned out to be 12.4 ± 0.35 µM in the assay on HepG2 cells (Homo sapiens, HepG2, 48 h) and 16 ± 0.51 µM with MCF-7 cells (Homo sapiens, MCF7, 48 h).

For the molecule `Cc1cc(O)c2c(c1)C(=O)c1cc(OCCOC(=O)[C@@H](N)CC(C)C)cc(O)c1C2=O` [Compound 3g, (S)-1-(2-(4,5-Dihydroxy-7-methyl-9,10-dioxo-9,10-dihydroanthracen-2-yloxy)ethoxy)-4-methyl-1-oxopentan-2-aminium 2,2,2-trifluoroacetate], the IC50 in the assay with HepG2 cells (Homo sapiens, HepG2, 48 h) was determined as 15.9 ± 0.33 µM; in the assay with MCF-7 cells (Homo sapiens, MCF7, 48 h), 16.1 ± 0.23 µM.

As to `CCC(C)[C@H](N)C(=O)OCCOc1cc(O)c2c(c1)C(=O)c1cc(C)cc(O)c1C2=O` (stereo partly drawn) [Compound 3h, (2S)-1-(2-(4,5-dihydroxy-7-methyl-9,10-dioxo-9,10-dihydroanthracen-2-yloxy)ethoxy)-3-methyl-1-oxo-pentan-2-aminium 2,2,2-trifluoroacetate], the IC50 came to 14.4 ± 0.27 µM with HepG2 cells (Homo sapiens, HepG2, 48 h) and 12.8 ± 1.05 µM in the assay with MCF-7 cells (Homo sapiens, MCF7, 48 h).

As to `CSCC[C@H](N)C(=O)OCCOc1cc(O)c2c(c1)C(=O)c1cc(C)cc(O)c1C2=O` [Compound 3i, (S)-1-(2-(4,5-Dihydroxy-7-methyl-9,10-dioxo-9,10-dihydroanthracen-2-yloxy)ethoxy)-4-(methylthio)-1-oxobutan-2-aminium 2,2,2-trifluoroacetate], the half-inhibitory concentration (IC50) is 17.2 ± 0.2 µM with HepG2 cells (Homo sapiens, HepG2, 48 h) and 17.2 ± 0.41 µM in the assay with MCF-7 cells (Homo sapiens, MCF7, 48 h).

As to `Cc1cc(O)c2c(c1)C(=O)c1cc(OCCOC(=O)C(C)(C)N)cc(O)c1C2=O` [Compound 3j, 1-(2-(4,5-Dihydroxy-7-methyl-9,10-dioxo-9,10-dihydroanthracen-2-yloxy)ethoxy)-2-methyl-1-oxopropan-2-aminium 2,2,2-trifluoroacetate], the IC50 worked out at 25.8 ± 5.28 µM in the assay with HepG2 cells (Homo sapiens, HepG2, 48 h) and 29.8 ± 1.78 µM with MCF-7 cells (Homo sapiens, MCF7, 48 h).

For `Cc1cc(O)c2c(c1)C(=O)c1cc(OCCOC(=O)C3(N)CC3)cc(O)c1C2=O` [Compound 3k, 1-((2-(4,5-Dihydroxy-7-methyl-9,10-dioxo-9,10-dihydroanthracen-2-yloxy)ethoxy)carbonyl)cyclopropan-aminium 2,2,2-trifluoroacetate], the IC50 in the assay with HepG2 cells (Homo sapiens, HepG2, 48 h) is 53.2 ± 8.7 µM; with MCF-7 cells (Homo sapiens, MCF7, 48 h), > 100 µM.

On to `Cc1cc(O)c2c(c1)C(=O)c1cc(OCCOC(=O)C3(N)CCC3)cc(O)c1C2=O` [Compound 3l, 1-((2-(4,5-Dihydroxy-7-methyl-9,10-dioxo-9,10-dihydroanthracen-2-yloxy)ethoxy)carbonyl)cyclobutan-aminium 2,2,2-trifluoroacetate], for which the IC50 with HepG2 cells (Homo sapiens, HepG2, 48 h) is 67.49 ± 0.56 µM; with MCF-7 cells (Homo sapiens, MCF7, 48 h) it was > 100 µM.

On to `Cc1cc(O)c2c(c1)C(=O)c1cc(OCCOC(=O)C3(N)COC3)cc(O)c1C2=O` [Compound 3m, 3-((2-(4,5-Dihydroxy-7-methyl-9,10-dioxo-9,10-dihydroanthracen-2-yloxy)ethoxy)carbonyl)oxetan-3-aminium 2,2,2-trifluoroacetate], for which the IC50 was > 100 µM in the assay on HepG2 cells (Homo sapiens, HepG2, 48 h) and > 100 µM in the assay on MCF-7 cells (Homo sapiens, MCF7, 48 h).

Consider `Cc1cc(O)c2c(c1)C(=O)c1cc(OCCOC(=O)C3(N)CCCC3)cc(O)c1C2=O` [Compound 3n, 1-((2-(4,5-Dihydroxy-7-methyl-9,10-dioxo-9,10-dihydroanthracen-2-yloxy)ethoxy)carbonyl)cyclopentan-aminium 2,2,2-trifluoroacetate], for which the half-inhibitory concentration (IC50) in the assay with HepG2 cells was determined as 17.5 ± 0.59 µM; in the assay on HepG2 cells (Homo sapiens, HepG2, 48 h) it was 12.5 ± 0.59 µM; with MCF-7 cells (Homo sapiens, MCF7, 48 h), 23.5 ± 1.93 µM; in the assay with MCF-7 cells, 18.5 ± 1.93 µM.

As for `Cc1cc(O)c2c(c1)C(=O)c1cc(OCCOC(=O)[C@H]3CCCN3)cc(O)c1C2=O` [Compound 3o, (R)-2-((2-(4,5-Dihydroxy-7-methyl-9,10-dioxo-9,10-dihydroanthracen-2-yloxy)ethoxy)carbonyl)-pyrrolidinium 2,2,2-trifluoroacetate], the IC50 in the assay on HepG2 cells (Homo sapiens, HepG2, 48 h) stood at 17.6 ± 0.43 µM; in the assay with MCF-7 cells (Homo sapiens, MCF7, 48 h) it was 17.6 ± 0.29 µM.

Turning to `Cc1cc(O)c2c(c1)C(=O)c1cc(OCCOC(=O)[C@@H]3CCCN3)cc(O)c1C2=O` [Compound 3p, (S)-2-((2-(4,5-Dihydroxy-7-methyl-9,10-dioxo-9,10-dihydroanthracen-2-yloxy)ethoxy)carbonyl)-pyrrolidinium 2,2,2-trifluoroacetate], the IC50 in the assay with HepG2 cells (Homo sapiens, HepG2, 48 h) turned out to be 19 ± 0.6 µM; in the assay with MCF-7 cells (Homo sapiens, MCF7, 48 h), 20 ± 1.82 µM.

For `Cc1cc(O)c2c(c1)C(=O)c1cc(OCCOC(=O)[C@H](N)c3ccccc3)cc(O)c1C2=O` [Compound 3q, (R)-2-(2-(4,5-Dihydroxy-7-methyl-9,10-dioxo-9,10-dihydroanthracen-2-yloxy)ethoxy)-2-oxo-1-phenyl-ethanaminium 2,2,2-trifluoroacetate], the IC50 with HepG2 cells (Homo sapiens, HepG2, 48 h) came out at 25.9 ± 0.48 µM; in the assay with MCF-7 cells (Homo sapiens, MCF7, 48 h), 28.5 ± 1.74 µM.

For `Cc1cc(O)c2c(c1)C(=O)c1cc(OCCOC(=O)[C@@H](N)c3ccccc3)cc(O)c1C2=O` [Compound 3r, (S)-2-(2-(4,5-Dihydroxy-7-methyl-9,10-dioxo-9,10-dihydroanthracen-2-yloxy)ethoxy)-2-oxo-1-phenyl-ethanaminium 2,2,2-trifluoroacetate], the IC50 with HepG2 cells (Homo sapiens, HepG2, 48 h) worked out at 19.3 ± 1.08 µM; in the assay on MCF-7 cells (Homo sapiens, MCF7, 48 h) it was 25.7 ± 0.61 µM.

Turning to `Cc1cc(O)c2c(c1)C(=O)c1cc(OCCOC(=O)[C@H](N)c3ccc(O)cc3)cc(O)c1C2=O` [Compound 3s, (R)-2-(2-(4,5-Dihydroxy-7-methyl-9,10-dioxo-9,10-dihydroanthracen-2-yloxy)ethoxy)-1-(4-hydroxyphenyl)-2-oxoethanaminium 2,2,2-trifluoroacetate], the IC50 with HepG2 cells (Homo sapiens, HepG2, 48 h) was 18.5 ± 0.55 µM; in the assay on MCF-7 cells (Homo sapiens, MCF7, 48 h), 25.9 ± 1.09 µM.

Take `Cc1cc(O)c2c(c1)C(=O)c1cc(OCCOC(=O)[C@@H](N)c3ccc(O)cc3)cc(O)c1C2=O` [Compound 3t, (S)-2-(2-(4,5-Dihydroxy-7-methyl-9,10-dioxo-9,10-dihydroanthracen-2-yloxy)ethoxy)-1-(4-hydroxyphenyl)-2-oxoethanaminium 2,2,2-trifluoroacetate]: the IC50 with HepG2 cells (Homo sapiens, HepG2, 48 h) amounted to 26.1 ± 1.44 µM; in the assay on MCF-7 cells (Homo sapiens, MCF7, 48 h), 39.6 ± 1.97 µM.

Consider `Cc1cc(O)c2c(c1)C(=O)c1cc(OCCOC(=O)[C@H](N)c3ccc(F)cc3)cc(O)c1C2=O` [Compound 3u, (R)-2-(2-(4,5-Dihydroxy-7-methyl-9,10-dioxo-9,10-dihydroanthracen-2-yloxy)ethoxy)-1-(4-fluorophenyl)-2-oxoethanaminium 2,2,2-trifluoroacetate], for which the IC50 was 14.3 ± 1.04 µM with HepG2 cells (Homo sapiens, HepG2, 48 h) and 20.8 ± 0.32 µM in the assay on MCF-7 cells (Homo sapiens, MCF7, 48 h).

Consider `Cc1cc(O)c2c(c1)C(=O)c1cc(OCCOC(=O)[C@@H](N)c3ccc(F)cc3)cc(O)c1C2=O` [Compound 3v, (S)-2-(2-(4,5-Dihydroxy-7-methyl-9,10-dioxo-9,10-dihydroanthracen-2-yloxy)ethoxy)-1-(4-fluorophenyl)-2-oxoethanaminium 2,2,2-trifluoroacetate], for which the IC50 was found to be 11.4 ± 0.77 µM with HepG2 cells (Homo sapiens, HepG2, 48 h) and 22.6 ± 0.9 µM in the assay on MCF-7 cells (Homo sapiens, MCF7, 48 h).

Regarding `Cc1cc(O)c2c(c1)C(=O)c1cc(OCCOC(=O)[C@H](N)Cc3ccccc3)cc(O)c1C2=O` [Compound 3w, (R)-1-(2-(4,5-Dihydroxy-7-methyl-9,10-dioxo-9,10-dihydroanthracen-2-yloxy)ethoxy)-1-oxo-3-phenyl-propan-2-aminium 2,2,2-trifluoroacetate], the concentration for half-maximal inhibition (IC50) with HepG2 cells (Homo sapiens, HepG2, 48 h) came out at 31.5 ± 2.72 µM; in the assay with MCF-7 cells (Homo sapiens, MCF7, 48 h), 42.4 ± 1.16 µM.
